Earlier results in patent US20230027739A1, “ANTIGEN-BINDING AND ANTIGEN D[…]” (Entrada Therapeutics, Inc., priority 2021, published 2023).

Assays:
[1] = for Amino Acid Hydrophobicity, Eisenberg and Weiss: hydrophobicity scale of Eisenberg and Weiss; for Amino Acid Hydrophobicity, Engleman et al.: hydrophobicity scale of Engleman et al.; for Amino Acid Hydrophobicity, Hoop and Woods: hydrophobicity scale of Hoop and Woods; for Amino Acid Hydrophobicity, Janin: hydrophobicity scale of Janin; for Amino Acid Hydrophobicity, Kyrie and Doolittle: hydrophobicity scale of Kyrie and Doolittle
[2] = for Amino Acid SASA Values, Theoretical: theoretical values as reported by Tien, et al.

Row | Compound | Amino Acid Hydrophobicity, Eisenberg and Weiss [1] | Amino Acid Hydrophobicity, Engleman et al. [1] | Amino Acid Hydrophobicity, Hoop and Woods [1] | Amino Acid Hydrophobicity, Janin [1] | Amino Acid Hydrophobicity, Kyrie and Doolittle [1] | Amino Acid SASA Values, Miller et al. (1987) [2] [Å^2] | Amino Acid SASA Values, Rose et al. (1985) [2] [Å^2] | Amino Acid SASA Values, Empirical [2] [Å^2] | Amino Acid SASA Values, Theoretical [2] [Å^2]
1 | C[C@H](N)C(=O)O [Ala] | 0.25 | 1.6 | −0.5 | 0.3 | 1.8 | – | – | – | –
2 | C[C@H](N)C(=O)O [Alanine] | – | – | – | – | – | 113.0 | 118.1 | 121.0 | 129.0
3 | N=C(N)NCCC[C@H](N)C(=O)O [Arg] | −1.80 | −12.3 | 3.0 | −1.4 | −4.5 | – | – | – | –
4 | N=C(N)NCCC[C@H](N)C(=O)O [Arginine] | – | – | – | – | – | 241.0 | 256.0 | 265.0 | 274.0
5 | NC(=O)C[C@H](N)C(=O)O [Asn] | −0.64 | −4.8 | 0.2 | −0.5 | −3.5 | – | – | – | –
6 | N[C@@H](CC(=O)O)C(=O)O [Asp] | −0.72 | −9.2 | 3.0 | −0.6 | −3.5 | – | – | – | –
7 | NC(=O)C[C@H](N)C(=O)O [Asparagine] | – | – | – | – | – | 158.0 | 165.5 | 187.0 | 195.0
8 | N[C@@H](CC(=O)O)C(=O)O [Aspartate] | – | – | – | – | – | 151.0 | 158.7 | 187.0 | 193.0
9 | N[C@@H](CS)C(=O)O [Cys] | 0.04 | 2.0 | −1.0 | 0.9 | 2.5 | – | – | – | –
10 | N[C@@H](CS)C(=O)O [Cysteine] | – | – | – | – | – | 140.0 | 146.1 | 148.0 | 167.0
11 | N[C@@H](CCC(=O)O)C(=O)O [Glu] | −0.62 | −8.2 | 3.0 | −0.7 | −3.5 | – | – | – | –
12 | N[C@@H](CCC(=O)O)C(=O)O [Glutamate] | – | – | – | – | – | 183.0 | 186.2 | 214.0 | –
13 | NCC(=O)O [Glycine] | – | – | – | – | – | 85.0 | 88.1 | 97.0 | 104.0
14 | N[C@@H](Cc1c[nH]cn1)C(=O)O [His] | −0.40 | −3.0 | −0.5 | −0.1 | −3.2 | – | – | – | –
15 | N[C@@H](Cc1c[nH]cn1)C(=O)O [Histidine] | – | – | – | – | – | 194.0 | 202.5 | 216.0 | 224.0
16 | CC[C@H](C)[C@H](N)C(=O)O [Isoleucine] | – | – | – | – | – | 182.0 | 181.0 | 195.0 | 197.0
17 | NCCCC[C@H](N)C(=O)O [Lys] | −1.10 | −8.8 | 3.0 | −1.8 | −3.9 | – | – | – | –

Row | Compound | Amino Acid Hydrophobicity, Eisenberg and Weiss [1] | Amino Acid Hydrophobicity, Engleman et al. [1] | Amino Acid Hydrophobicity, Hoop and Woods [1] | Amino Acid Hydrophobicity, Janin [1] | Amino Acid Hydrophobicity, Kyrie and Doolittle [1] | Amino Acid SASA Values, Miller et al. (1987) [2] [Å^2] | Amino Acid SASA Values, Rose et al. (1985) [2] [Å^2] | Amino Acid SASA Values, Empirical [2] [Å^2] | Amino Acid SASA Values, Theoretical [2] [Å^2]
18 | NCCCC[C@H](N)C(=O)O [Lysine] | – | – | – | – | – | 211.0 | 225.8 | 230.0 | 236.0
19 | CSCC[C@H](N)C(=O)O [Met] | 0.26 | 3.4 | −1.3 | 0.4 | 1.9 | – | – | – | –
20 | CSCC[C@H](N)C(=O)O [Methionine] | – | – | – | – | – | 204.0 | 203.4 | 203.0 | 224.0
21 | N[C@@H](Cc1ccccc1)C(=O)O [Phe] | 0.61 | 3.7 | −2.5 | 0.5 | 2.8 | – | – | – | –
22 | N[C@@H](Cc1ccccc1)C(=O)O [Phenylalanine] | – | – | – | – | – | 218.0 | 222.8 | 228.0 | 240.0
23 | O=C(O)[C@@H]1CCCN1 [Proline] | – | – | – | – | – | 143.0 | 146.8 | 154.0 | –
24 | N[C@@H](CO)C(=O)O [Ser] | −0.26 | 0.6 | 0.3 | −0.1 | −0.8 | – | – | – | –
25 | N[C@@H](CO)C(=O)O [Serine] | – | – | – | – | – | 122.0 | 129.8 | 143.0 | 155.0
26 | C[C@@H](O)[C@H](N)C(=O)O [Thr] | −0.18 | 1.2 | −0.4 | −0.2 | −0.7 | – | – | – | –
27 | C[C@@H](O)[C@H](N)C(=O)O [Threonine] | – | – | – | – | – | 146.0 | 152.5 | 163.0 | 172.0
28 | N[C@@H](Cc1c[nH]c2ccccc12)C(=O)O [Trp] | 0.37 | 1.9 | −3.4 | 0.3 | −0.9 | – | – | – | –
29 | N[C@@H](Cc1c[nH]c2ccccc12)C(=O)O [Tryptophan] | – | – | – | – | – | 259.0 | 266.3 | 264.0 | 285.0
30 | N[C@@H](Cc1ccc(O)cc1)C(=O)O [Tyr] | 0.02 | −0.7 | −2.3 | −0.4 | −1.3 | – | – | – | –
31 | N[C@@H](Cc1ccc(O)cc1)C(=O)O [Tyrosine] | – | – | – | – | – | 229.0 | 236.8 | 255.0 | 263.0
32 | CC(C)[C@H](N)C(=O)O [Val] | 0.54 | 2.6 | −1.5 | 0.6 | 4.2 | – | – | – | –
33 | CC(C)[C@H](N)C(=O)O [Valine] | – | – | – | – | – | 160.0 | 164.5 | 165.0 | 174.0
